Data on one molecule can be found in patent US20090149440A1, “NOVEL PYRIDONECARBOXYLIC ACID DERIVATIVES OR SALTS THEREOF” (priority 2004, published 2009).

Values after ≈ are worked out from the molar mass of the structure shown.

For one data set, the system named is M. luteus IFO12708. The data set can be described thus: Antibacterial activity, minimum inhibitory concentration (standard method of the Japanese Society of Chemotherapy). The data set is classed as cell-based. Particulars: Micrococcus luteus. Here is the method:
(§1) Minimum inhibitory concentration (MIC: μg/mL) of the compounds shown in Table 1 was determined according to the standard method of the Japanese Society of Chemotherapy (CHEMOTHERAPY 29(1), 76, 1981).

The subject of another data set is MRSA W44. The description is as above. The data set is classed as cell-based. Particulars: Staphylococcus aureus. The method, then: as §1
The test system of the next data set is P. mirabilis IFO3849. The data set is described as above. The data set is classed as cell-based. Particulars: Proteus mirabilis. The method, then: as §1
In the next data set the test system is S. haemolytlcus 67. The data set is described as above. The data set is classed as cell-based. Here is the method:
as §1

A further data set deals with female ICR mice. The data set is described as follows: Phototoxicity test: ear abnormalities after UV irradiation. Particulars: 40 mg/10 mL/kg intravenously, UV 320 to 400 nm for four hours. The data set is classed as in vivo. More on the design: key to Phototoxicity score: normal (0 point); slight erythema (score 1); medium erythema (score 2); serious erythema or edema (score 3). The method, then:
Each test compound was intravenously administered (40 mg/10 mL/kg) to female ICR mice (5- to 6-weeks old), and the mice were irradiated with UV-rays (320 to 400 nm, 1.8 mW/cm^2/sec) for four hours. Abnormalities induced in the ear of each mouse were observed immediately after (0 hour), 24 hours after, and 48 hours after the irradiation. The abnormality was evaluated according to the following criteria: normal (0 point), slight erythema (score 1), medium erythema (score 2), and serious erythema or edema (score 3).

For the next data set, the system named is human serum proteins. The data set can be described thus: Binding rate to proteins by ultrafiltration method. Format: in vitro ADME. Particulars: 5 μg/mL, 37° C. for 30 minutes. Here is the method: Binding rate to proteins of the compounds shown in Table 3 was determined by ultrafiltration method. Specifically, a 0.5 mg/mL DMSO solution of each compound was diluted with human serum or a 0.4% phosphate buffer (pH: 7.4 containing 0.5% NaCl) to thereby prepare a 5 μg/mL solution. The human serum solution was incubated at 37° C. for 30 minutes and centrifugally filtrated through a filter (pore size: 0.22 μm). A portion of the serum filtrate and the phosphate buffer solution were applied to an HPLC system, and the peak area of the compound was measured. Binding rate of each compound to human serum proteins was calculated by the following equation 1: Binding rate (%)=(A−B)×100/A (equation 1) A: Peak area (in phosphate buffer) B: Peak area (in serum filtrate)

The term MIC denotes the least concentration at which growth counts as inhibited. As for `CNC1CN(c2c(F)cc3c(=O)c(C(=O)O)cn(-c4nc(N)c(F)cc4F)c3c2Br)C1` [compound 1, 1-(6-amino-3,5-difluoropyridin-2-yl)-8-bromo-6-fluoro-7-(3-methylaminoazetidin-1-yl)-4-oxo-1,4-dihydroquinolin-3-carboxylic acid], the MIC in the data set with M. luteus IFO12708 was determined as 0.25 µg/mL (≈ 0.502 µM); with MRSA W44 it was 0.06 µg/mL (≈ 0.12 µM); in the data set with P. mirabilis IFO3849, 0.5 µg/mL (≈ 1 µM); with S. haemolytlcus 67 it was 8 µg/mL (≈ 16.1 µM). Further, the Phototoxicity incidence with female ICR mice (0 hour after irradiation), with female ICR mice (24 hours after irradiation) and in the data set with female ICR mice (48 hours after irradiation) was 0/3 in each case. The Phototoxicity score in the data set with female ICR mice (0 hour after irradiation), with female ICR mice (24 hours after irradiation) and in the data set with female ICR mice (48 hours after irradiation) was 0 in each case. In the data set on human serum proteins, the “Binding rate to proteins” value came to 49.0%.
